In ChEMBL document CHEMBL3797133, “Structure-Based Design of an Iminoheterocyclic β-Site Amyloid Precursor Protein Cleaving Enzyme (BACE) Inhibitor that Lowers Central Aβ in Nonhuman Primates” (J Med Chem, 2016):

Experiments:
in vivo [1] = settings: rat, brain/plasma, po, 10 mg/kg
in vivo [2] = settings: rat, brain homogenate, po, 10 mg/kg

Kp at 6 h (in vivo [1]): 0.4 | concentration at 6 h (in vivo [2]): 88 nM
Compound: COc1nc(N2C[C@H]3C(=O)N(C)C(N)=N[C@@]3(c3c(F)ccc(F)c3F)C2)nc(C)c1F
